Consider 15 sequences from patent US20260250318A1, “COMPOSITIONS AND METHODS FOR CROSSING THE BLOOD BRAIN BARRIER” (VOYAGER THERAPEUTICS, INC., priority 2022, published 2026).

Details in all cases: synthetic library passage 3, intravenous, relative to wild-type AAV9
The subject of assay [1] is brain. Description: NGS fold enrichment of synthetic library (passage 3) in C57Bl/6 mice, first cross-species screen. In kind it is in vivo. As to the method: (§1) After creation of the synthetic library with the sub-selected variants, the synthetic library was screened (passage 3) in two NHPs (2-4 years of age) and two strains of mice, BALB/c (n=3, 6-8 weeks of age) and C57Bl/6 mice (n=3, 6-8 weeks of age), in a first cross-species evolution screen. The animals were injected intravenously with the synthetic library. After a period in vivo, (e.g., 28-days) RNA was extracted from nervous tissue, e.g., brain, spinal cord, and DRG of the NHPs and the brains of mice. Following RNA recovery and RT-PCR amplification, a systematic NGS enrichment analysis was performed, and the peptides comprised within the variants were identified and the capsid enrichment ratio for each variant compared to the wild-type AAV9 control was calculated (fold enrichment relative to wild-type AAV9) (Table 9). […] All animals were dosed intravenously at […] across the screen.

Assay [2] relates to brain, spinal cord, and DRG of the NHPs. Description: NGS fold enrichment of synthetic library (passage 3) in NHPs, first cross-species screen. In kind it is in vivo, cynomolgus macaques (Macaca fascicularis). As to the method:
as §1

The subject of assay [3] is brain. Description: NGS fold enrichment of synthetic library (passage 3) in BALB/c mice, first cross-species screen. In kind it is in vivo. As to the method: as §1
Setting [4] is: RNA from brain of C57Bl/6 mice, NGS.
Where [5] appears, read: RNA from spinal cord of NHPs, NGS.
Setting [6] is: RNA from brain of BALB/c mice, NGS.

Consider GSIAMTSHGQNQQT, for which the “Fold enrichment over AAV9 in the brain of Mice (C57Bl/6)” value (from here on “Fold enrichment over AAV9 … (C57Bl/6)”) in the assay on brain [1] (setting [4]) came out at 0.551 fold. Besides, the “Fold enrichment over AAV9 in the brain of NHPs” value in assay [2] (RNA from brain of NHPs, NGS) is recorded as 1.178 fold. The “Fold enrichment over AAV9 in the spinal cord of NHPs” value in assay [2] (setting [5]) turned out to be 1.435 fold. The “Fold enrichment over AAV9 in the brain of Mice (BALB/c)” value (“Fold enrichment over AAV9 … (BALB/c)” below) with brain [3] (setting [6]) is 0.438 fold.
On the same counts, the results for GSIQYQSSGQNQQT are 1.074 fold, 1.147 fold, 2.601 fold and 1.191 fold.
Consider GSGLSHSHQQNQQT, for which the “Fold enrichment over AAV9 … (C57Bl/6)” value in the assay with brain [1] (RNA NGS, brain of C57Bl/6 mice) is on record as 1.256 fold. In assay [2] (RNA NGS, brain of NHPs), the “Fold enrichment over AAV9 in the brain of NHPs” value is 2.109 fold. Moreover, the “Fold enrichment over AAV9 in the spinal cord of NHPs” value in assay [2] (RNA NGS, spinal cord of NHPs) is 5.852 fold. The “Fold enrichment over AAV9 … (BALB/c)” value in the assay on brain [3] (RNA NGS, brain of BALB/c mice) stood at 0.592 fold.
Turning to GSGQHLPLLGNQQT, the “Fold enrichment over AAV9 … (C57Bl/6)” value with brain [1] (setting [4]) came out at 0.519 fold. Further, the “Fold enrichment over AAV9 in the brain of NHPs” value in assay [2] (RNA from brain of NHPs, NGS) was 1.175 fold. Further, in assay [2] (setting [5]), the “Fold enrichment over AAV9 in the spinal cord of NHPs” value came out at 1.739 fold. Further, in the assay on brain [3] (setting [6]), the “Fold enrichment over AAV9 … (BALB/c)” value was 0.347 fold.
Regarding GSGQNQQTSMSNAT, in the assay with brain [1] (RNA NGS, brain of C57Bl/6 mice), the “Fold enrichment over AAV9 … (C57Bl/6)” value amounted to 1.605 fold. The “Fold enrichment over AAV9 in the brain of NHPs” value in assay [2] (RNA NGS, brain of NHPs) is given as 1.501 fold. Moreover, the “Fold enrichment over AAV9 in the spinal cord of NHPs” value in assay [2] (RNA NGS, spinal cord of NHPs) worked out at 6.766 fold. The “Fold enrichment over AAV9 … (BALB/c)” value in the assay with brain [3] (RNA NGS, brain of BALB/c mice) is on record as 0.745 fold.
On the same counts, the results for GSHTLVVSGQNQQT are 0.671 fold, 1.069 fold, 1.535 fold and 0.748 fold.
For GSSKELLWGQNQQT the same measures were 0.506 fold, 2.163 fold, 0.000 fold and 0.883 fold.
In the case of GYEVLGSSGQNQQT, in the assay with brain [1] (RNA NGS, brain of C57Bl/6 mice), the “Fold enrichment over AAV9 … (C57Bl/6)” value amounted to 2.459 fold. The “Fold enrichment over AAV9 in the brain of NHPs” value in assay [2] (RNA NGS, brain of NHPs) is 2.891 fold. For the same sequence, the “Fold enrichment over AAV9 in the spinal cord of NHPs” value in assay [2] (RNA NGS, spinal cord of NHPs) is 0.000 fold. Also, in the assay on brain [3] (RNA NGS, brain of BALB/c mice), the “Fold enrichment over AAV9 … (BALB/c)” value is 0.319 fold.
On the same counts, the results for GLRLSTPSGQNQQT are 0.804 fold, 1.498 fold, 4.334 fold and 0.522 fold.
In the case of GSGQPRSTGINQQT, the “Fold enrichment over AAV9 … (C57Bl/6)” value in the assay with brain [1] (RNA NGS, brain of C57Bl/6 mice) is 0.650 fold. For the same sequence, the “Fold enrichment over AAV9 in the brain of NHPs” value in assay [2] (RNA NGS, brain of NHPs) is reported as 1.061 fold. For the same sequence, in assay [2] (RNA NGS, spinal cord of NHPs), the “Fold enrichment over AAV9 in the spinal cord of NHPs” value came to 0.693 fold. In the assay on brain [3] (RNA NGS, brain of BALB/c mice), the “Fold enrichment over AAV9 … (BALB/c)” value amounted to 0.542 fold.
On the same counts, the results for GLSNPMPSGQNQQT are 1.190 fold, 2.280 fold, 6.033 fold and 0.829 fold.
GSGQNLHSGLPQQT: the “Fold enrichment over AAV9 … (C57Bl/6)” value with brain [1] (setting [4]) came out at 1.054 fold. In addition, the “Fold enrichment over AAV9 in the brain of NHPs” value in assay [2] (RNA from brain of NHPs, NGS) is 1.363 fold. Besides, the “Fold enrichment over AAV9 in the spinal cord of NHPs” value in assay [2] (setting [5]) was found to be 1.594 fold. The “Fold enrichment over AAV9 … (BALB/c)” value in the assay with brain [3] (setting [6]) is 0.592 fold.
On the same counts, the results for GPASLPISGQNQQT are 0.312 fold, 1.386 fold, 9.008 fold and 0.155 fold.
On to GSGQSHLHTGNQQT, for which the “Fold enrichment over AAV9 … (C57Bl/6)” value in the assay with brain [1] (RNA NGS, brain of C57Bl/6 mice) amounted to 0.721 fold. Further, the “Fold enrichment over AAV9 in the brain of NHPs” value in assay [2] (RNA NGS, brain of NHPs) is given as 1.096 fold. For the same sequence, the “Fold enrichment over AAV9 in the spinal cord of NHPs” value in assay [2] (RNA NGS, spinal cord of NHPs) was 2.584 fold. For the same sequence, the “Fold enrichment over AAV9 … (BALB/c)” value with brain [3] (RNA NGS, brain of BALB/c mice) is recorded as 0.295 fold.
On the same counts, the results for GSGQNQQLSRDAST are 1.877 fold, 1.754 fold, 3.716 fold and 0.611 fold.
